# Assay results reported in ChEMBL document CHEMBL1139046, “3,4-Dihydro-2H-benzoxazinones as dual-acting 5-HT1A receptor antagonists and serotonin reuptake inhibitors” (Bioorg Med Chem Lett, 2007).
# The source made the active and inactive calls. The rule behind the calls is not given here.
# Columns and labels:
# D(3) dopamine receptor = D(3) dopamine receptor (Homo sapiens, UniProt P35462); assay: Displacement of [125I]iodosulpiride from human cloned D3 receptor expressed in CHO cells; type: cell-based
# D(3) dopamine receptor, sequence (P35462 whole entry): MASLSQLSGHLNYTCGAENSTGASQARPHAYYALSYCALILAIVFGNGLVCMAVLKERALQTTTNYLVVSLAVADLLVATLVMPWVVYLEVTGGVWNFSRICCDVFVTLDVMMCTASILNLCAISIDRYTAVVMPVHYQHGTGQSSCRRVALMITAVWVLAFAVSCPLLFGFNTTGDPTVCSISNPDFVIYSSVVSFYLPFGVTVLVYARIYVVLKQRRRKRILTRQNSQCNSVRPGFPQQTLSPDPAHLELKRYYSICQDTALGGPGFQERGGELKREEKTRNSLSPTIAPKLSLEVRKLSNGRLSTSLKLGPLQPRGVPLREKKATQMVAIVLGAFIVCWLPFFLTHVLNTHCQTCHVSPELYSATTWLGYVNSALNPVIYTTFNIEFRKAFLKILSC
# [1] = biological target: T1, 5-hydroxytryptamine receptor 1A (Homo sapiens, UniProt P08908); assay: Displacement of [3H]WAY-100635 from human cloned 5HT1A receptor expressed in CHO cells; type: cell-based
# T1 sequence (P08908 whole entry): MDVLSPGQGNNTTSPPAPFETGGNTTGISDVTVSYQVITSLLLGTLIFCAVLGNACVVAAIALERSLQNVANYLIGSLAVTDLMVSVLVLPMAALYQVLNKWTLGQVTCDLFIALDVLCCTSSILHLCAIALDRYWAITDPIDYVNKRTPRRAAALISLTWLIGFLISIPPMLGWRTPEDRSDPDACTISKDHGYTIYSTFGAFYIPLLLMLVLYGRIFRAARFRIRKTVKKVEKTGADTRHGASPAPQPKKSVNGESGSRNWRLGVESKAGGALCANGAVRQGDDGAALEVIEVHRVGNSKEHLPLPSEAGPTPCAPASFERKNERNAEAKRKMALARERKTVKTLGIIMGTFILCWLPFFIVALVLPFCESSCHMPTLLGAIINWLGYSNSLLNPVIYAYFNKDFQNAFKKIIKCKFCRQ
# [2] = biological target: 5-hydroxytryptamine receptor 2B (Homo sapiens, UniProt P41595); assay: Displacement of [3H]5-HT from human cloned 5HT2B receptor expressed in HEK293 cells; type: cell-based
# 5-hydroxytryptamine receptor 2B, sequence (P41595 whole entry): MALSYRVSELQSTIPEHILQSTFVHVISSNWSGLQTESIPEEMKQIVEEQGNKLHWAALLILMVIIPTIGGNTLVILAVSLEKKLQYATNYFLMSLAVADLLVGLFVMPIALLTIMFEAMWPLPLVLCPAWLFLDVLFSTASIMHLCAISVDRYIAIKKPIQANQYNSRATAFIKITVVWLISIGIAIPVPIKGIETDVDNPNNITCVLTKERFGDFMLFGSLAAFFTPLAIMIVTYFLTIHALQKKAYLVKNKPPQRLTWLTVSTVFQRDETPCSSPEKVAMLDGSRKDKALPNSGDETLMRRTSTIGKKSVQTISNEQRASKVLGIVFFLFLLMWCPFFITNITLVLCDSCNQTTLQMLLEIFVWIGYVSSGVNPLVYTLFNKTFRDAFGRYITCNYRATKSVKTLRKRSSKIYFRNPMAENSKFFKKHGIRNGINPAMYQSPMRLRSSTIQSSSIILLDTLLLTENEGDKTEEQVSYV
# [3] = biological target: 5-hydroxytryptamine receptor 6 (Homo sapiens, UniProt P50406); assay: Displacement of [3H]LSD from human cloned 5HT6 receptor expressed in HeLa cells; type: cell-based
# 5-hydroxytryptamine receptor 6, sequence (P50406 whole entry): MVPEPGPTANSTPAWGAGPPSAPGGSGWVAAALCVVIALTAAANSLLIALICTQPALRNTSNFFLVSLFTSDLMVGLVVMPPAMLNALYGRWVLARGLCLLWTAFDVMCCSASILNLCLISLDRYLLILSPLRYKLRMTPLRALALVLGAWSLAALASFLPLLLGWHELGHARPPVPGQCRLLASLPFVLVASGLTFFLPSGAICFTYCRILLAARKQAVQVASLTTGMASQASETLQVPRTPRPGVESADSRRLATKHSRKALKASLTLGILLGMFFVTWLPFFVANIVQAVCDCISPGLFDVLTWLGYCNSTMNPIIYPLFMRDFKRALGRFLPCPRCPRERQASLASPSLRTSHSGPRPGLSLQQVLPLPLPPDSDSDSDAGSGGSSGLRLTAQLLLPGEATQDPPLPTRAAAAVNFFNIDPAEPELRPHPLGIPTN
# [4] = biological target: 5-hydroxytryptamine receptor 1B (Homo sapiens, UniProt P28222); assay: Displacement of [3H]5-HT from human cloned 5HT1B receptor expressed in CHO cells; type: cell-based
# 5-hydroxytryptamine receptor 1B, sequence (P28222 whole entry): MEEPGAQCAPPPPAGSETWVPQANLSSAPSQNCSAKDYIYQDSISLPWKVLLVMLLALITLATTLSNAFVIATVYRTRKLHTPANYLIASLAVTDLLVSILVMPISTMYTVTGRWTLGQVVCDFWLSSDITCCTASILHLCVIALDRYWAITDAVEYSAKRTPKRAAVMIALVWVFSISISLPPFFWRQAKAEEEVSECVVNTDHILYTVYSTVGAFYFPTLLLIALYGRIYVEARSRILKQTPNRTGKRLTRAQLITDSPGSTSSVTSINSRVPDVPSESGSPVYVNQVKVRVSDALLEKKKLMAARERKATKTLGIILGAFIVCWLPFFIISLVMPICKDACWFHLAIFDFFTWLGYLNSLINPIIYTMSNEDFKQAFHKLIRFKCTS
# [5] = biological target: Sodium-dependent serotonin transporter (Rattus norvegicus, UniProt P31652); assay: Inhibition of [3H]5-HT uptake at SERT in rat cortical synaptosomes; type: subcellular, Brain
# Sodium-dependent serotonin transporter, sequence (P31652 whole entry): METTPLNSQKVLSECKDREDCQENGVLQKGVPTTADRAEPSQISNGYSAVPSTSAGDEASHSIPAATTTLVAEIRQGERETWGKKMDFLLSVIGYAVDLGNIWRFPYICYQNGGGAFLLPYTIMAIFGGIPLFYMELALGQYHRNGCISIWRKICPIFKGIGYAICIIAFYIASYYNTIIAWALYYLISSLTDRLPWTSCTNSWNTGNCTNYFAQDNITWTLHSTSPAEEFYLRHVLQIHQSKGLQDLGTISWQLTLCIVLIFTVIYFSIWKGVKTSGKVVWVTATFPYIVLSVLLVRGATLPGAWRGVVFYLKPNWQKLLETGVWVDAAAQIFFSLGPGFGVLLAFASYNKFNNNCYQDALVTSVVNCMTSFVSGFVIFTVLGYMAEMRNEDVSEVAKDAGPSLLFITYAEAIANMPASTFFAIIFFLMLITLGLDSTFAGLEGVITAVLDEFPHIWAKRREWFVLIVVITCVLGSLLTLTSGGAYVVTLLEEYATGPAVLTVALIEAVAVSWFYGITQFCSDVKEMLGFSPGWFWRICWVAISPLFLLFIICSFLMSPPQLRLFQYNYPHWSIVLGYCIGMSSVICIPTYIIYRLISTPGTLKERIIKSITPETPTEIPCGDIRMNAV
# [6] = biological target: T2, 5-hydroxytryptamine receptor 2C (Homo sapiens, UniProt P28335); assay: Displacement of [3H]mesulergine from human cloned 5HT2C receptor expressed in HEK293 cells; type: cell-based
# T2 sequence (P28335 whole entry): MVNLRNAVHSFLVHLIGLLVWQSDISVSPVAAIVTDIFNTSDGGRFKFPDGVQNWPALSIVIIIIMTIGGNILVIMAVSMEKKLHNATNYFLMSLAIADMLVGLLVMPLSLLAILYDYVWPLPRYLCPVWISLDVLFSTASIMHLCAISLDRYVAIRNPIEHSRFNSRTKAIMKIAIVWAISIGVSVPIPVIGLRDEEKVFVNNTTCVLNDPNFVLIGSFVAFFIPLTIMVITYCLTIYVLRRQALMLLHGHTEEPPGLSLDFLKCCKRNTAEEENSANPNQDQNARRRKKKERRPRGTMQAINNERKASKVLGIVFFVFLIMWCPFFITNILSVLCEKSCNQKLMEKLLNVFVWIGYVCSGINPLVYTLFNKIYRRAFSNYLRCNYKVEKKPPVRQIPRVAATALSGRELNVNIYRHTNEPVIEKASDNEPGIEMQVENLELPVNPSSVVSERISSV
# [7] = biological target: 5-hydroxytryptamine receptor 7 (Homo sapiens, UniProt P34969); assay: Displacement of [3H]5CT from human cloned 5HT7a receptor expressed in HEK293 cells; type: cell-based
# 5-hydroxytryptamine receptor 7, sequence (P34969 whole entry): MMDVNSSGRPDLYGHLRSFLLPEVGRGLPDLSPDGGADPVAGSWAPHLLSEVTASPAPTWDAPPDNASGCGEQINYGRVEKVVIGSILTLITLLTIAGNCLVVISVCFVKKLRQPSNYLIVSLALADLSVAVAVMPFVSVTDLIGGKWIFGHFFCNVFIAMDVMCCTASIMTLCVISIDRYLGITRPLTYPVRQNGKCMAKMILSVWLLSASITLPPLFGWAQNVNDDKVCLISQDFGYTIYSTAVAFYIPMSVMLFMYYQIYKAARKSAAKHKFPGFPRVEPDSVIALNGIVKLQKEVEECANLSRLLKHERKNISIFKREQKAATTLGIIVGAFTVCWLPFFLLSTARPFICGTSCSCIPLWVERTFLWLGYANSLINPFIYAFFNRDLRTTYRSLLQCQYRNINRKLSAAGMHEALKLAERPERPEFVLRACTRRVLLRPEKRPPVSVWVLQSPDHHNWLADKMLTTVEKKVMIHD
# D(2) dopamine receptor = D(2) dopamine receptor (Homo sapiens, UniProt P14416); assay: Displacement of [125I]iodosulpiride from human cloned D2 receptor expressed in CHO cells; type: cell-based
# D(2) dopamine receptor, sequence (P14416 whole entry): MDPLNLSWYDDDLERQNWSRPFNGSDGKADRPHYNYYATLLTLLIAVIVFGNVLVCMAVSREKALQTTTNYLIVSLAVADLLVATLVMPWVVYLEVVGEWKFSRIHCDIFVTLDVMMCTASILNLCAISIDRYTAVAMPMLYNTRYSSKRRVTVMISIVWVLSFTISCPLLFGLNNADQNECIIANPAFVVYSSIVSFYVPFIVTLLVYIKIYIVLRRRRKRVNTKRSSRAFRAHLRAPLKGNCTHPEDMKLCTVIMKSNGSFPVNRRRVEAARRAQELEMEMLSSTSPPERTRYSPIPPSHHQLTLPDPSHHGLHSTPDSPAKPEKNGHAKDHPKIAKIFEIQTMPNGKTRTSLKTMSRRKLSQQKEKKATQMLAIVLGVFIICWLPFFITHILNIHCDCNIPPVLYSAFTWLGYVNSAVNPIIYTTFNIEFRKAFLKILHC
# [8] = biological target: 5-hydroxytryptamine receptor 1D (Homo sapiens, UniProt P28221); assay: Displacement of [3H]5-HT from human cloned 5HT1D receptor expressed in CHO cells; type: cell-based
# 5-hydroxytryptamine receptor 1D, sequence (P28221 whole entry): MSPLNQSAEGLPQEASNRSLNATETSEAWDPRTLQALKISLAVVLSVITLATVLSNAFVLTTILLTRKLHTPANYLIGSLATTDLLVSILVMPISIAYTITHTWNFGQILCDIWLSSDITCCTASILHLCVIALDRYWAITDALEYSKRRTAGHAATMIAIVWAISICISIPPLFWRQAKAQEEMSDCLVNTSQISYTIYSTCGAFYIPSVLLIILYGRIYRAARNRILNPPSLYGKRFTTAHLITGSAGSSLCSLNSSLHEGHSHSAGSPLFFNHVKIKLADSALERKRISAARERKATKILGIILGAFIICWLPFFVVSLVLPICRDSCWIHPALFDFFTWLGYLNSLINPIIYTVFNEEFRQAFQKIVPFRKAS
# [9] = Ratio of drug level in brain to blood in rat
# [10] = biological target: 5-hydroxytryptamine receptor 2A (Homo sapiens, UniProt P28223); assay: Displacement of [3H]ketanserin from human cloned 5HT2A receptor expressed in HEK293 cells; type: cell-based
# 5-hydroxytryptamine receptor 2A, sequence (P28223 whole entry): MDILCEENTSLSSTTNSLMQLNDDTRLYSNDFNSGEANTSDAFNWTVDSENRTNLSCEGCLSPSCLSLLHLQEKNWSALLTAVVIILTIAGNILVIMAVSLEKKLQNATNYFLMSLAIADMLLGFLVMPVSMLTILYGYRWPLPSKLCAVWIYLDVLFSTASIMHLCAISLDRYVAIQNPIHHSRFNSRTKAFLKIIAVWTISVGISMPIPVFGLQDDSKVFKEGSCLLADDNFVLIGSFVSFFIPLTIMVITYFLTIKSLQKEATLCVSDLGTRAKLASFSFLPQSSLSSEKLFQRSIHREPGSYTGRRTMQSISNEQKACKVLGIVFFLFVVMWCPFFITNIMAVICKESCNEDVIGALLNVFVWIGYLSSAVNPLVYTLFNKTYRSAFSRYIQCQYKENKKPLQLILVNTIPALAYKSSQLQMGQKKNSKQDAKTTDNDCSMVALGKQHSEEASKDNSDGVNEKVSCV
# [11] = biological target: Alpha-1B adrenergic receptor (Homo sapiens) (UniProt P35368); assay: Binding affinity at adrenergic alpha 1b receptor
# Alpha-1B adrenergic receptor (Homo sapiens), sequence (P35368 whole entry, looked up): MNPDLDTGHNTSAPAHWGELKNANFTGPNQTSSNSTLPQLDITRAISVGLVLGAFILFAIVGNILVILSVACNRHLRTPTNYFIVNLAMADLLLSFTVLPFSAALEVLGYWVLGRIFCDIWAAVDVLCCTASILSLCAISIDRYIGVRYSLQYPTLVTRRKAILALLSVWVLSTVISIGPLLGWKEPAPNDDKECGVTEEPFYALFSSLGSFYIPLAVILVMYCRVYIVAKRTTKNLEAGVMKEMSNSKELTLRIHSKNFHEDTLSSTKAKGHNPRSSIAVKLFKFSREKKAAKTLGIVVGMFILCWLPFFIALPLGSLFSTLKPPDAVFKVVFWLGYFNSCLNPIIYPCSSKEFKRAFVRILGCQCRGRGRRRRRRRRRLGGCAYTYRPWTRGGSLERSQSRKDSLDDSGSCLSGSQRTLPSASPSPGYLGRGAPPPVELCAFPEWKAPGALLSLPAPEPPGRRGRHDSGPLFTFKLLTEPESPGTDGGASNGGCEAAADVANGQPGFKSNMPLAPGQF
# [12] = Oral bioavailability in rat at 3 mg/kg, po; type: ADME, organism-based; details: in vivo
# [13] = Blood clearance in rat at 3 mg/kg, po; type: ADME, organism-based; design: dose 3 mg/kg, route oral; details: whole blood
# Rattus norvegicus [14] = assay: Attenuation of 8-OH DPAT induced locomotor activity in po dosed rat; type: functional
# Homo sapiens [15] = species on record: Homo sapiens; assay: Selectivity for human 5TH1A over human 5HT1B
# Rattus norvegicus [16] = assay: Ex vivo displacement of [3H]8-OH DPAT from 5HT1A receptor in rat cortex at 1 mg/kg, po; type: functional
# Homo sapiens [17] = species on record: Homo sapiens; assay: Selectivity for human 5TH1A over human 5HT1D
# [18] = biological target: T3, 5-hydroxytryptamine receptor 1A (Rattus norvegicus, UniProt P19327); assay: Agonist activity at rat 5HT1A receptor; type: functional
# T3 sequence (P19327 whole entry): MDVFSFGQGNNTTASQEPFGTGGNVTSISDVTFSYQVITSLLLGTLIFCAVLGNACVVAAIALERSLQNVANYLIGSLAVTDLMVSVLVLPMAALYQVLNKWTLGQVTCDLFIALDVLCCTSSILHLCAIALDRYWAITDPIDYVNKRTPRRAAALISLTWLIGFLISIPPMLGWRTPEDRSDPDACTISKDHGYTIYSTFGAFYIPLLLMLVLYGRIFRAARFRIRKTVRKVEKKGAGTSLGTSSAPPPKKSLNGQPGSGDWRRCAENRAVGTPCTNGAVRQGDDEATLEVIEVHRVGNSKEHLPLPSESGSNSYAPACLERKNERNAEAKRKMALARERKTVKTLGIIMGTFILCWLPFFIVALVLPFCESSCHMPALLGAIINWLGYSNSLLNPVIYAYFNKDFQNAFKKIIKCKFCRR
# Rattus norvegicus [19] = species on record: Rattus norvegicus; assay: Ex vivo displacement of [3H]8-OH DPAT from 5HT1A receptor in rat cortex; type: functional, organism-based
# [20] = Selectivity for rat SERT over human 5HT1D
# [21] = biological target: T4, 5-hydroxytryptamine receptor 1A (Homo sapiens) (UniProt P08908); assay: Intrinsic activity at 5HT1A receptor expressed in HEK293 cells relative to 5HT by [35S]GTPgammaS binding assay; type: functional, cell-based
# T4 sequence (whole entry): T1 sequence (P08908 whole entry)
# [22] = Agonist activity at marmoset 5HT1A receptor; type: functional, Callithrix jacchus
# [23] = Selectivity for rat SERT over human 5HT1B
# Rattus norvegicus [24] = assay: Ex vivo displacement of [3H]WAY-100635 from 5HT1A receptor in rat cortex at 1 mg/kg, po; type: functional
# Rattus norvegicus [25] = species on record: Rattus norvegicus; assay: Ex vivo displacement of [3H]WAY-100635 from 5HT1A receptor in rat cortex; type: functional, organism-based
# Rattus norvegicus [26] = species on record: Rattus norvegicus; assay: Ex vivo inhibition of [3H]5-HT uptake at SERT in rat cortical synaptosomes; type: functional; details: Brain
# [27] = Agonist activity at guinea pig 5HT1A receptor; type: functional, Cavia porcellus
# Rattus norvegicus [28] = assay: Effect on locomotor activity in rat up to 10 mg/kg
SMILES,Ki (D(3) dopamine receptor),Ki [1],Ki [2],Ki [3],Ki [4],Ki [5],Ki [6],Ki [7],Ki (D(2) dopamine receptor),Ki [8],Kp [9],Ki [10],bioavailability [12],CL/F [13],Ki [11],other results
Cc1ccc2c(OCCN3CCC(Cc4cc(F)c5c(c4)NC(=O)CO5)CC3)cc(F)cc2n1,3980 nM,3.98 nM,> 7940 nM,> 6310 nM,316 nM,63.1 nM,> 10000 nM,79.4 nM,> 10000 nM,79.4 nM,0.4,> 10000 nM,88%,25 mL/min/kg,–,Log Ki [11]: > -6
Cc1ccc2c(OCCN3CCC(Cc4ccc5c(c4)NC(=O)CO5)CC3)ccc(Cl)c2n1,–,39.8 nM,–,–,158 nM,12.6 nM,–,–,–,63.1 nM,–,–,–,–,–,–
Cc1ccc2c(OCCN3CCC(Cc4ccc5c(c4F)NC(=O)CO5)CC3)cccc2n1,–,2.51 nM,–,–,2.51 nM,15.8 nM,–,–,–,0.794 nM,4,–,–,41 mL/min/kg,–,–
Cc1ccc2c(OCCN3CCC(Cc4cc5c(cc4F)OCC(=O)N5)CC3)cc(F)cc2n1,501 nM,0.398 nM,1000 nM,> 1000 nM,1000 nM,7.94 nM,1260 nM,39.8 nM,2000 nM,251 nM,1.2,2000 nM,54%,19 mL/min/kg,794 nM,ED50 (Rattus norvegicus [14]): < 1 mg/kg; Selectivity ratio (Homo sapiens [15]): 100; inhibition in vivo at 1 mg/kg (Rattus norvegicus [16]): 50%; Selectivity ratio (Homo sapiens [17]): 100; Ki [18]: > 1 nM; Activity (Rattus norvegicus [19]): Dose-dependent effect; Selectivity ratio [20]: 100; Intrinsic activity [21]: 0; Log Ki [22]: > -9; Selectivity ratio [23]: 100; inhibition in vivo at 1 mg/kg (Rattus norvegicus [24]): 50%; Activity (Rattus norvegicus [25]): Dose-dependent effect; ED50 (Rattus norvegicus [26]): 3 mg/kg; Log Ki [27]: > -9
Cc1ccc2c(OCCN3CCC(Cc4ccc5c(c4F)NC(=O)CO5)CC3)cc(Cl)cc2n1,1000 nM,2.51 nM,1580 nM,> 10000 nM,1580 nM,63.1 nM,3980 nM,126 nM,1260 nM,631 nM,–,3980 nM,43%,28 mL/min/kg,398 nM,–
Cc1ccc2c(OCCN3CCC(Cc4cc5c(cc4F)OCC(=O)N5)CC3)cccc2n1,–,0.501 nM,–,–,20 nM,7.94 nM,–,–,–,3.16 nM,–,–,33%,36 mL/min/kg,–,–
Cc1ccc2c(OCCN3CCC(Cc4cc(F)c5c(c4)NC(=O)CO5)CC3)cccc2n1,–,5.01 nM,–,–,0.794 nM,6.31 nM,–,–,–,0.398 nM,–,–,–,22 mL/min/kg,–,–
Cc1ccc2c(OCCN3CCC(Cc4cc5c(cc4F)OCC(=O)N5)CC3)cc(Cl)cc2n1,2000 nM,2.51 nM,–,7940 nM,2000 nM,15.8 nM,> 5010 nM,39.8 nM,3160 nM,794 nM,–,> 10000 nM,60%,18 mL/min/kg,2510 nM,ED50 (Rattus norvegicus [14]): 3 mg/kg; Selectivity ratio (Homo sapiens [15]): 100; inhibition in vivo at 1 mg/kg (Rattus norvegicus [16]): 50%; Activity (Rattus norvegicus [28]): inactive; Log Ki ([2]; hek293): > -6; Selectivity ratio (Homo sapiens [17]): 100; Ki [18]: > 1 nM; Activity (Rattus norvegicus [19]): Dose-dependent effect; Selectivity ratio [20]: 100; Intrinsic activity [21]: 0; Log Ki [22]: > -9; Selectivity ratio [23]: 100; inhibition in vivo at 1 mg/kg (Rattus norvegicus [24]): 50%; Activity (Rattus norvegicus [25]): Dose-dependent effect; ED50 (Rattus norvegicus [26]): 3 mg/kg; Log Ki [27]: > -9
Cc1ccc2c(OCCN3CCC(Cc4ccc5c(c4)NC(=O)CO5)CC3)cc(Cl)cc2n1,–,1.58 nM,–,–,1260 nM,10 nM,–,–,–,794 nM,0.2,–,56%,25 mL/min/kg,–,–
Cc1ccc2c(OCCN3CCC(Cc4cc(F)c5c(c4)NC(=O)CO5)CC3)cc(Cl)cc2n1,1260 nM,10 nM,3160 nM,> 10000 nM,631 nM,63.1 nM,2510 nM,79.4 nM,2510 nM,631 nM,–,3160 nM,51%,16 mL/min/kg,1580 nM,–
Cc1ccc2c(OCCN3CCC(Cc4ccc5c(c4)NC(=O)CO5)CC3)ccc(F)c2n1,–,20 nM,–,–,794 nM,7.94 nM,–,–,–,79.4 nM,–,–,–,–,–,–
Cc1ccc2c(OCCN3CCC(Cc4ccc5c(c4)NC(=O)CO5)CC3)cc(C#N)cc2n1,–,20 nM,–,–,1000 nM,100 nM,–,–,–,251 nM,–,–,–,–,–,–
Cc1ccc2c(OCCN3CCC(Cc4ccc5c(c4)NC(=O)CO5)CC3)cc(F)cc2n1,–,0.794 nM,–,–,> 1000 nM,15.8 nM,–,–,–,398 nM,–,–,41%,25 mL/min/kg,–,–
Cc1ccc2c(OCCN3CCC(Cc4ccc5c(c4)NC(=O)CO5)CC3)c(F)ccc2n1,–,50.1 nM,–,–,31.6 nM,10 nM,–,–,–,2.51 nM,–,–,–,–,–,–
Cc1ccc2c(OCCN3CCC(Cc4ccc5c(c4F)NC(=O)CO5)CC3)cc(F)cc2n1,794 nM,1.58 nM,–,> 10000 nM,398 nM,25.1 nM,2510 nM,126 nM,1260 nM,100 nM,6.4,2000 nM,39%,27 mL/min/kg,1260 nM,–
Cc1ccc2c(OCCN3CCC(Cc4ccc5c(c4)NC(=O)CO5)CC3)cccc2n1,631 nM,–,1580 nM,> 10000 nM,–,–,> 7940 nM,200 nM,1260 nM,–,–,3160 nM,45%,50 mL/min/kg,2510 nM,–
